# Laboratory results: patent US9440969B2, “Compounds and methods for kinase modulation, and indications therefor” (PLEXXIKON INC., priority 2009, dated 2016)
# Test system: A375 melanoma (B-Raf V600E mutation)
# Test: A375 cell growth inhibition (ATPlite luminescence)
# Assay type: cell-based
# Details: Homo sapiens, A-375, 72 h, A375 cells, incubated 3 days with compound
# Description: Compounds are assessed in a variety of cell based assays. For example human cell lines with B-Raf V600E mutation (A375 melanoma, SKMEL3 melanoma, and COLO205 colon adenocarcinoma), as well as tumorigenic cell lines with wild-type B-RAF (SW620 colon adenocarcinoma) or with Ras mutations (SKMEL2 melanoma and IPC298 melanoma). Similar assays may be used to assess additional tumorigenic cell lines with Ras mutations, including, but not limited to, M202, M207, M243, M244, M296, S117, HCT116, HCT15, DLD1, MiaPaCa, A549, NCI-H23, NCI-H460, HOP62, MDA-MB231, Hs-578T, HL60, MOLT-4, and CCRF-CEM.
# On day 1, cells are counted, then centrifuged in a conical tube for 5 minutes at 1000 rpm. The supernatant is removed and cells are re-suspended as follows: • SW620 (ATCC catalog #CCL-27): resuspend in Leibovitz's L-15 medium, 2 mM L-glutamine, 10% fetal bovine serum to 6×10^4 cells/mL. • A375 (ATCC catalog #CRL-1619): resuspend in Dulbecco's modified Eagle's medium, 4 mM L-glutamine, 4.5 g/L D-glucose, 10% fetal bovine serum to 6×10^4 cells/mL. • COLO205 (ATCC catalog #CCL-222): resuspend in RPMI 1640, 2 mM L-glutamine, 1.5 g/L sodium bicarbonate, 4.5 g/L D-glucose, 10 mM HEPES, 1.0 mM sodium pyruvate, 10% fetal bovine serum to 6×10^4 cells/mL. • SKMEL2 (ATCC catalog #HTB-68): resuspend in Minimum Eagle essential medium, 2 mM L-glutamine, 1.5 g/L sodium bicarbonate, 0.1 mM non-essential amino acids, 1.0 mM sodium pyruvate, 10% fetal bovine serum to 6×10^4 cells/mL. • SKMEL3 (ATCC catalog #HTB-69): resuspend in McCoy's 5A medium, 1.5 mM L-glutamine, 15% fetal bovine serum to 6×10^4 cells/mL. • IPC298 (DSMZ catalog #ACC 251): resuspend in RPMI 1640, 2 mM L-glutamine, 10% fetal bovine serum to 6×10^4 cells/mL.
# The cells are plated, 50 μL in each well of a 96-well dish (Corning 3610) and incubated at 37° C. in 5% CO2 overnight, cells plated to a final concentration of cells as follows:
# On day 2, compound at a maximum concentration of 5 mM is serially diluted 1:3 (e.g. 10 μL with 30 μL dimethyl sulfoxide) for a total of 8 point titration with DMSO as a control. A 1 μL aliquot of each dilution point and control is added to 249 μL growth media and 50 μL is added to a well containing cells, providing 10 μM compound at the maximum concentration point. The cells are incubated for 3 days at 37° C. in 5% CO2.
# On day 5, ATPlite 1 step Luminescence Assay System (Perkin Elmer #6016739) is brought to room temperature along with the cell cultures. ATPlite is added 25 μL to each well, shake for 2 minutes, and the cells are incubated at room temperature for 10 minutes, then luminescence is read on Safire reader. The measured luminescence correlates directly with cell number, such that the reading as a function of compound concentration is used to determine the IC50 value.
# It is understood that the results of these assays may vary as assay conditions are varied. Inhibition levels determined under the conditions described herein represent a relative activity for the compounds tested under the specific conditions employed. The cell based assays are likely to show variability due to the complexity of the system and the sensitivity thereof to any changes in the assay conditions. […] Results for compounds that are tested and show substantially no inhibition below the highest tested concentration are represented as “-” in the tables below. In some instances, the compounds were not tested in all of the assays, or assay results were not valid, as indicated by NA in the tables below.
row,IC50 [µM],SMILES
1,< 1,"CCCS(=O)(=O)Nc1ccc(F)c(C(=O)c2c[nH]c3ncc(-c4ccc5[nH]ncc5c4)cc23)c1F [P-0001, propane-1-sulfonic acid {2,4-difluoro-3-[5-(1H-indazol-5-yl)-1H-pyrrolo[2,3-b]pyridine-3-carbonyl]-phenyl}-amide]"
2,< 1,"CNC(=O)n1ncc2cc(-c3cnc4[nH]cc(C(=O)c5c(F)ccc(NS(=O)(=O)c6cc(F)ccc6F)c5F)c4c3)ccc21 [P-0003, 5-{3-[3-(2,5-Difluoro-benzenesulfonylamino)-2,6-difluoro-benzoyl]-1H-pyrrolo[2,3-b]pyridin-5-yl}-indazole-1-carboxylic acid methylamide]"
3,> 1,"CCCS(=O)(=O)Nc1ccc(F)c(C(=O)c2c[nH]c3ncc(-c4ccc5c(cnn5C(C)=O)c4)cc23)c1F [P-0007, propane-1-sulfonic acid {3-[5-(1-acetyl-1H-indazol-5-yl)-1H-pyrrolo[2,3-b]pyridine-3-carbonyl]-2,4-difluoro-phenyl}-amide]"
4,< 1,"CCCS(=O)(=O)Nc1ccc(F)c(C(=O)c2c[nH]c3ncc(-c4ccc5nn(C)cc5c4)cc23)c1F [P-0010, Propane-1-sulfonic acid {2,4-difluoro-3-[5-(2-methyl-2H-indazol-5-yl)-1H-pyrrolo[2,3-b]pyridine-3-carbonyl]-phenyl}-amide]"
5,< 1,"CCCS(=O)(=O)Nc1ccc(F)c(C(=O)c2c[nH]c3ncc(-c4ccc5cn(C)nc5c4)cc23)c1F [P-0011, Propane-1-sulfonic acid {2,4-difluoro-3-[5-(2-methyl-2H-indazol-6-yl)-1H-pyrrolo[2,3-b]pyridine-3-carbonyl]-phenyl}-amide]"
6,< 1,"CCCS(=O)(=O)Nc1ccc(F)c(C(=O)c2c[nH]c3ncc(-c4ccc5[nH]ccc5c4)cc23)c1F [P-0012, Propane-1-sulfonic acid {2,4-difluoro-3-[5-(1H-indol-5-yl)-1H-pyrrolo[2,3-b]pyridine-3-carbonyl]-phenyl}-amide]"
7,< 1,"CCCS(=O)(=O)Nc1ccc(F)c(C(=O)c2c[nH]c3ncc(-c4cccc5nn(C)cc45)cc23)c1F [P-0015, Propane-1-sulfonic acid {2,4-difluoro-3-[5-(2-methyl-2H-indazol-4-yl)-1H-pyrrolo[2,3-b]pyridine-3-carbonyl]-phenyl}-amide]"
8,< 1,"CCCS(=O)(=O)Nc1ccc(F)c(C(=O)c2c[nH]c3ncc(-c4csc(-n5ccnc5C)n4)cc23)c1F [P-1101, Propane-1-sulfonic acid (2,4-difluoro-3-{5-[2-(2-methyl-imidazol-1-yl)-thiazol-4-yl]-1H-pyrrolo[2,3-b]pyridine-3-carbonyl}-phenyl)-amide]"
